As a reminder, the IC50 is the midpoint of a concentration-inhibition curve.

Experimental findings from patent publication US20260347372A1, “SMALL MOLECULE INHIBITORS OF KRAS G12D MUTANT” (MERCK SHARP & DOHME LLC, priority 2023, published 2026) are described below.

The target of one assay is KRAS G12D (Homo sapiens, UniProt P01116, G12D). Briefly: SOS-catalyzed nucleotide exchange assay, KRAS G12D (Procedure A). Format: biochemical. The settings on record: guanine nucleotide exchange (GNE). The text has this: (§1) Procedure for SOS-Catalyzed Nucleotide Exchange Assay for KRAS-WT, G12C/D/V, G13D, HRAS, and NRAS (Procedure A)
Chain of KRAS G12D (P01116 with tags, fused parts or gaps isoform P01116-2 G12D): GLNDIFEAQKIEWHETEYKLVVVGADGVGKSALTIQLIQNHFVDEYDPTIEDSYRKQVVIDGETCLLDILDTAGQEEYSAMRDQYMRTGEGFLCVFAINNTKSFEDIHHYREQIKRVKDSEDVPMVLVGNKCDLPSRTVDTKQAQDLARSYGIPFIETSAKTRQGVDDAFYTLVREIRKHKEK
(§2) Recombinant KRAS-G12C protein used in this assay has an additional triple mutation (C51S/C80L/C118S). Whereas KRAS-WT, G12D/V, G13D, HRAS and NRAS are in context of their WT protein sequence background. Specifically, the SOS-catalyzed nucleotide exchange assay utilizes a preformed TR-FRET complex containing a specific biotinylated RAS protein (KRAS-WT, G12C/V/D, G13D, HRAS, NRAS; described above) with Bodipy-GDP, and Terbium-streptavidin. Compounds are preincubated with this complex for 60 minutes. Subsequently, recombinant human SOS protein and unlabeled GTP are added to initiate the exchange reaction. Small molecule inhibitors stabilize the Bodipy-GDP complex whereas the untreated protein rapidly exchanges Bodipy-GDP for unlabeled GTP resulting in reduced TR-FRET signal.
(§3) To assemble the preformed TR-FRET complexes, each biotinylated RAS protein is diluted to 2 μM in an EDTA Buffer (20 mM HEPES pH 7.5, 50 mM sodium chloride, 10 mM EDTA, and 0.01% Tween) and incubated at room temperature for one hour. This mixture is then further diluted to 90 nM in an Assay Buffer (20 mM HEPES pH 7.5, 150 mM sodium chloride, 10 mM magnesium chloride, and 0.005% Tween) containing 15 nM of Terbium-Streptavidin (Invitrogen, catalog #PV3577) and 900 nM of Bodipy-GDP (Invitrogen, catalog #G22360) and incubated at room temperature for six hours. It should be noted that this preformed TR-FRET complex for each of the RAS protein were made ahead of time, aliquoted and stored at −80° C. until the day of the experiment.
(§4) Each test compound (10 mM stock in DMSO) is diluted in DMSO to make a final-10-point, 3-fold dilution and is acoustically dispensed into a 384-well assay plate (Corning, catalog #3820) using an Echo 550 (Labcyte). Each well of the assay plate receives 3 μL of a specific 3×RAS preformed TR-FRET complex and 3 μL of Assay Buffer and is incubated at room temperature for 60 minutes (preincubation time). Each well then receives 3 μL of 3× recombinant human SOS protein and GTP (Sigma, G8877) in Assay Buffer and is incubated at room temperature for 30 minutes (G13D), 60 minutes (KRAS WT/G12C/D, H/NRAS) or 90 minutes for G12V. The final reaction in each well of 9 μL consists of 3 mM GTP, specific Ras and SOS proteins in the following concentrations: KRAS-G12C/SOS=3 nM/40 nM, KRAS-WT and G12D/SOS=1 nM/40 nM, KRAS-G12V/SOS=1.25 nM/160 nM, KRAS-G13D/SOS=1.25 nM/0 nM, HRAS and NRAS=1.25 nM/40 nM.
(§5) The time-resolved fluorescence resonance energy transfer (TR-FRET) signal is measured on an Envision (PerkinElmer) plate reader: Excitation filter=340 nm; emission1=495 nm; emission2=520 nm; dichroic mirror=D400/D505; delay time=[…]. The signal of each well is determined as the ratio of the emission at 520 nm to that at 495 nm. Percent effect of each well is determined after normalization to control wells containing DMSO (no effect) or a saturating concentration of inhibitor (max effect). The apparent effect as a function of compound concentration is fit to a four-parameter logistic equation.
(§6) For Example No. 14, nucleotide exchange assays for KRAS G12D, WT, G12C, and G12V were performed according to Procedure B. All the other compounds were tested according to Procedure A.

The next assay has as its target KRAS WT (Homo sapiens, UniProt P01116). The assay can be described thus: SOS-catalyzed nucleotide exchange assay, KRAS WT (Procedure A). The format is biochemical. The settings on record: GNE.
Text: as §1, §2, §3, §4, §5, §6

The next assay addresses KRAS G12V (Homo sapiens, UniProt P01116, G12V). Briefly: SOS-catalyzed nucleotide exchange assay, KRAS G12V (Procedure A). The format is biochemical. The settings on record: GNE.
Text: as §1, §2, §3, §4, §5, §6

In the next assay the target is T1, AsPC-1 cells (Homo sapiens, UniProt P01116, G12D).
T1 construct: p-ERK/total ERK AlphaSureFire read-out
T1 sequence (P01116 1-188 isoform P01116-2 G12D): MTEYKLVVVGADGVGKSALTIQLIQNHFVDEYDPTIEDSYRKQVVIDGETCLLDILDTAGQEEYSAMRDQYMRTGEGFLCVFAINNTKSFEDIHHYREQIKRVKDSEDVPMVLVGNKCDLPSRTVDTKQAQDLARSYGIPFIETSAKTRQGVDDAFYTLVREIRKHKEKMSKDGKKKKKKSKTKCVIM
Briefly: Cellular phospho-ERK assay, AsPC-1 cells (KRAS G12D). The format is cell-based. The settings on record: 2 hours, read-out: AsPC1 pERK IC50. How it is done: Procedure for Cellular Phospho-ERK Assay in KRAS Wild Type and Mutant (G12D, G12V) Cell Lines
PANC08.13 cells (ATCC® CRL-2551™), containing homozygous KRAS-G12D activating mutation, were cultured in growth medium made of RPMI1640-GlutaMAX™-I (ThermoFisher Scientific 61870) containing 15% heat inactivated fetal bovine serum (ThermoFisher Scientific 10091148)). AsPC-1 cells (ATCC® CRL-1682™), containing homozygous KRAS-G12D activating mutation, were cultured in T150 flask in growth medium (RPMI medium 1640-GlutaMAX™-I (ThermoFisher Scientific 61870) containing 10% fetal bovine serum (ThermoFisher Scientific 10091148)).
Cells for the assay were harvested in growth medium after TrypLE (ThermoFisher scientific 12604021) digestion and were seeded in a 384-well collagen coated cell culture plate (Corning 356702) at a density of 10,000-15,000 cells/20 μL/well, and incubated at 37° C., 5% CO2 overnight. The compound (with 10 mM stock concentration) dose-response titrations were prepared [30 μM final ERK detection assay concentration and 1:3 dilutions, 10-point dose response] and appropriate amounts (270 nL) of test compounds were dispensed in a 384-well intermediate plate using an Echo 550 liquid handler. 30 μL/well of RPMI medium 1640-GlutaMAX™-I was added to the intermediate plate and the contents of the intermediate plate (10 μL/well) were then transferred to the 384-well collagen coated cell culture plate, which was incubated at 37° C., 5% CO2 for 2 hours. After removal of medium from the collagen coated cell culture plate, cells were lysed in lysis buffer from Alpha SureFire® Ultra™ Multiplex p-ERK and total ERK assay kit (PerkinElmer MPSU-PTERK) containing Halt™ Protease and Phosphatase inhibitor cocktail (ThermoFisher Scientific 78446) at room temperature with constant shaking at 300 rpm for 30 minutes. The cell lysates were then transferred to an OptiPlate-384 plate (PerkinElmer 6005620), and the phosphorylation of ERK (p-ERK) and total ERK levels were detected by Alpha SureFire® Ultra™ Multiplex p-EEK kit and total ERK assay kit (PerkinElmer MPSU-PTERK) following the manufacturer's protocol. Assay plates were read on a EnVision Multimode Plate Reader (PerkinElmer), and the ratio of p-ERK vs. total ERK in each well was used as the final readout. Dose response curves were analyzed using a 4-parameter logistic model to calculate IC50 values using Spotfire software.

Chain of KRAS WT (P01116 with tags, fused parts or gaps isoform P01116-2): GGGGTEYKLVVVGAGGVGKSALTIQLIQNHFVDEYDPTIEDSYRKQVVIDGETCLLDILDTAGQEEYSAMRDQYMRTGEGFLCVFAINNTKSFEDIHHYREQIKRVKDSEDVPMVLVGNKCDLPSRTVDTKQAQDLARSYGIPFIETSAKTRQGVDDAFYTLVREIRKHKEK
Chain of KRAS G12V (P01116 with tags, fused parts or gaps isoform P01116-2 G12V): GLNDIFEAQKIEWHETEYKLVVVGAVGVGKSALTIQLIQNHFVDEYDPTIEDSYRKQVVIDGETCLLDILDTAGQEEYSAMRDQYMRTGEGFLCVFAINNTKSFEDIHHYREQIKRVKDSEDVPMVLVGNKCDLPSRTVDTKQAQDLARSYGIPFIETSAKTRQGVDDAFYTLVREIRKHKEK

Consider `C#Cc1c(F)ccc2cc3[nH]ncc3c(-c3nccc4c3sc3nc(OCC56CCCC5N(C)CCC6)nc(N5C[C@H]6CC[C@@H](C5)N6)c34)c12` (stereo partly drawn) [Ex-92, 4-((1R,5S)-3,8-diazabicyclo[3.2.1]octan-3-yl)-8-(5-ethynyl-6-fluoro-1H-benzo[f]indazol-4-yl)-2-((1-methyloctahydro-4aH-cyclopenta[b]pyridin-4a-yl)methoxy)pyrido[4′, 3′:4,5]thieno[2,3-d]pyrimidine], for which the half-maximal inhibitory concentration (IC50) against KRAS G12D is 1.99 nM; on KRAS WT, 57.4 nM; at KRAS G12V, 88.2 nM; at AsPC-1 cells it was 18.1 nM.

For the compound `Cc1cc2[nH]ncc2c(-c2nccc3c2sc2nc(OCC4CCS4(=O)=O)nc(N4C[C@H]5CC[C@@H](C4)N5)c23)c1C(F)(F)F` (stereo partly drawn) [Ex-31, 2-(((4-((1R,5S)-3,8-diazabicyclo[3.2.1]octan-3-yl)-8-(6-methyl-5-(trifluoromethyl)-1H-indazol-4-yl)pyrido[4′,3′:4,5]thieno[2,3-d]pyrimidin-2-yl)oxy)methyl)thietane 1,1-dioxide], the IC50 against KRAS G12D is 7790 nM; against KRAS WT, above 11100 nM; against KRAS G12V, above 11100 nM; at AsPC-1 cells, above 30000 nM.

On to `C#Cc1c(F)ccc2cc3[nH]ncc3c(-c3nccc4c3sc3nc(OCC56CCCN5CC(=C(F)F)C6)nc(N5C[C@H]6CC[C@@H](C5)N6)c34)c12` (stereo partly drawn) [Ex-93, 4-((1R,5S)-3,8-diazabicyclo[3.2.1]octan-3-yl)-2-(((S)-2-(difluoromethylene)tetra-hydro-1H-pyrrolizin-7a(5H)-yl)methoxy)-8-(5-ethynyl-6-fluoro-1H-benzo[f]indazol-4-yl)pyrido[4′,3′:4,5] thie-no[2,3-d]pyrimidine], for which the 50% inhibitory concentration (IC50) amounted to 1.16 nM against KRAS G12D, 72.9 nM on KRAS WT, 94.3 nM at KRAS G12V and 18 nM at AsPC-1 cells.

Take `Fc1ccc2cc3[nH]ncc3c(-c3nccc4c3C3(CC3)c3nc(OC[C@@]56CCCN5C[C@H](F)C6)nc(N5C[C@H]6CC[C@@H](C5)N6)c3-4)c2c1Cl` (single isomer, unassigned) [Ex-117]: the half-maximal inhibitory concentration (IC50) amounted to 2.4 nM on KRAS G12D, 369 nM against KRAS WT, 859 nM on KRAS G12V and 189 nM on AsPC-1 cells.

Take `C#Cc1csc2cc3[nH]ncc3c(-c3nccc4c3sc3nc(OC[C@]5(CN6CC7(C6)CC(F)(F)C7)CC5(F)F)nc(N5C[C@H]6CC[C@@H](C5)N6)c34)c12` [Ex-83, 4-((1R,5S)-3,8-diazabicyclo[3.2.1]octan-3-yl)-2-(((R)-1-((6,6-difluoro-2-azaspiro[3.3]heptan-2-yl)methyl)-2,2-difluorocyclopropyl)methoxy)-8-(5-ethynyl-1H-thieno[3,2-f]indazol-4-yl)pyrido[4′,3′:4,5]thieno[2,3-d]pyrimidine]: the 50% inhibitory concentration (IC50) on KRAS G12D was 1.43 nM; at KRAS WT, 430 nM; on KRAS G12V, 704 nM; at AsPC-1 cells, 42.5 nM.

For the compound `C#Cc1c(F)ccc2cc3[nH]ncc3c(-c3nccc4c3sc3nc(OCC5(C#N)CCOCC5)nc(N5C[C@H]6CC[C@@H](C5)N6)c34)c12` [Ex-90, 4-(((4-((1R,5S)-3,8-diazabicyclo[3.2.1]octan-3-yl)-8-(5-ethynyl-6-fluoro-1H-benzo[f]indazol-4-yl)pyrido[4′,3′:4,5]thie-no[2,3-d]pyrimidin-2-yl)oxy)methyl)tetrahy-dro-2H-pyran-4-carbonitrile], the IC50 was 187 nM against KRAS G12D, above 11100 nM against KRAS WT, above 11100 nM at KRAS G12V and 3310 nM on AsPC-1 cells.

For the compound `Fc1ccc2cc3[nH]ncc3c(-c3nccc4c3sc3nc(OC[C@@]56CCCN5C[C@H](F)C6)nc(N5C[C@H]6CC[C@@H](C5)N6)c34)c2c1` [Ex-57, 4-((1R,5S)-3,8-diazabicyclo[3.2.1]octan-3-yl)-8-(6-fluoro-1H-benzo[f]indazol-4-yl)-2-(((2R,7aS)-2-fluorotetrahydro-1H-pyrrolizin-7a(5H)-yl)methoxy)pyri-do[4′,3′:4,5] thieno[2,3-d]pyrimidine], the half-maximal inhibitory concentration (IC50) was found to be 23.6 nM at KRAS G12D, 2890 nM at KRAS WT, 2090 nM against KRAS G12V and 299 nM on AsPC-1 cells.
